The source of these data is PMC9118204, “Novel Dihydropyrimidinone Derivatives as Potential P-Glycoprotein Modulators” (ACS Omega, 2022).

The target in one series is T1, hPgp (Homo sapiens, UniProt P08183).
T1 construct: Caco-2 VB cells, which overexpress hPGP, were generated by growing Caco-2 cells in the presence of 1 μg/mL vinblastine; endogenous in cells; host or cells: Caco-2 VB (vinblastine-resistant human colorectal adenocarcinoma Caco-2 cells)
Briefly: Fluorescence microscopy imaging of intracellular calcein in Caco-2 VB cells. It is filed as cell-based. The settings on record: Caco-2-VB cells, 1 μM calcein-AM, 30 min, concentration = EC50. From the text:
(§1) In this assay, hydrolysis of intracellular calcein-AM to calcein by endogenous cellular esterases causes the cell to become highly fluorescent (see Figure S1 in Supporting Information).
Full details are provided in the Supporting Information.

The target of series [1] is T2, human P-glycoprotein (hPgp) (Homo sapiens, UniProt P08183).
T2 construct: Caco-2 VB cells, which overexpress hPGP, were generated by growing Caco-2 cells in the presence of 1 μg/mL vinblastine; endogenous in cells; host or cells: Caco-2 VB (vinblastine-resistant human colorectal adenocarcinoma Caco-2 cells)
T2 sequence (P08183 whole entry): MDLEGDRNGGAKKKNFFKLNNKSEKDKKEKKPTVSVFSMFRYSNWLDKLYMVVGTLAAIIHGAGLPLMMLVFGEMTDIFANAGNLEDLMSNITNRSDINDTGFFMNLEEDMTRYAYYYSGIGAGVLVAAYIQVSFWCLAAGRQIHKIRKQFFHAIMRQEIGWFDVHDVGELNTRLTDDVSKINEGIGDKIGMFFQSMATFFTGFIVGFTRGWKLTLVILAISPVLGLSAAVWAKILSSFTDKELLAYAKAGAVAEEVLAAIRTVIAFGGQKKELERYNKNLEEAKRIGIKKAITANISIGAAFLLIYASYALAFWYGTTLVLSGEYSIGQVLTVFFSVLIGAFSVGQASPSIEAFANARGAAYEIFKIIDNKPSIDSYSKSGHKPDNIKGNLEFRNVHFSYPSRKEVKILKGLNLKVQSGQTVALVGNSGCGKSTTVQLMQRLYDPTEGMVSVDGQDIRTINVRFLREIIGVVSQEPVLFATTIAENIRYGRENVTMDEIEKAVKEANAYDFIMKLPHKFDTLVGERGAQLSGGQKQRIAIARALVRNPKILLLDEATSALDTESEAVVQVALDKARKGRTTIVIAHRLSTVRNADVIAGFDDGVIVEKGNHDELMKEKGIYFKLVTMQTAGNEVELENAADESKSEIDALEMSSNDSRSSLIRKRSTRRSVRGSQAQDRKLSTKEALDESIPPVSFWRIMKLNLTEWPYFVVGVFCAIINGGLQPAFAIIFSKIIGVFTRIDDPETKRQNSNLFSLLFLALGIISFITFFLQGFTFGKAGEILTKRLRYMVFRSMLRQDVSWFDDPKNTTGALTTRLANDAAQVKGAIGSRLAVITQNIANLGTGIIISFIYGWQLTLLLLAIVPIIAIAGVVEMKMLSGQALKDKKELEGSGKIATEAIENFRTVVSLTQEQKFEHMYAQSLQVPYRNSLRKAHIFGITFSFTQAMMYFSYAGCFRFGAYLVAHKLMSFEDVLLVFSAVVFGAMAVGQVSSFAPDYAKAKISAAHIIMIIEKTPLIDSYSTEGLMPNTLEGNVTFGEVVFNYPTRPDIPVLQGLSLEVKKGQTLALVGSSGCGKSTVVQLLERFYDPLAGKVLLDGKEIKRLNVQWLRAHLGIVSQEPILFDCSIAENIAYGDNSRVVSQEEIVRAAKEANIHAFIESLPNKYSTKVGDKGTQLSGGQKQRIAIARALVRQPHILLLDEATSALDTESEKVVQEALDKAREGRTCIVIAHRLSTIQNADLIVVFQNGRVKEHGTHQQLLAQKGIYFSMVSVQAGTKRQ
As to the kind of experiment: hPgp-mediated calcein-AM efflux assay in Caco-2 VB cells. It is filed as cell-based. The settings on record: Caco-2 VB cells, calcein-AM; read-out: inhibition of calcein extrusion, EC50. Here is the method:
as §1
The colorectal adenocarcinoma Caco-2 cell line was generously provided by the Zydus Research Centre, Ahmedabad, Gujarat, India. […] Caco-2 VB cells, which overexpress hPGP, were generated by growing Caco-2 cells in the presence of 1 μg/mL vinblastine. The drug was removed from the culture medium 2–3 days prior to using the Caco-2 VB cells in the biological assays.
Each well contained 100 μL of cells in culture medium, 50 μL of a solution containing the TRZ-DPHM derivative, and 50 μL of calcein-AM (total volume, 200 μL). The final concentration of putative hPGP inhibitor in each assay ranged from 0.01 to 30 μg/mL. […] Caco-2 cells were used as a negative control (Figure S1). […] PBS was used for all dilutions. All experiments were performed in triplicate.
The effectiveness of inhibitors on Pgp efflux activity, i.e., calcein retention was calculated by the following equation [drawing 1] where FT is the fluorescence of treated cells and FU is the fluorescence of untreated cells.

The test system of series [2] is colorectal adenocarcinoma (Caco-2) cell line. As to the kind of experiment: MTT cytotoxicity assay against Caco-2 cells. It is filed as cell-based. The settings on record: Homo sapiens; Caco-2 cell line, MTT assay (Table 1). As to the method: The colorectal adenocarcinoma Caco-2 cell line was generously provided by the Zydus Research Centre, Ahmedabad, Gujarat, India. These cells were maintained in DMEM (Hi-Media) containing 25 mM HEPES buffer, 1000 mg/L glucose, L-glutamine, sodium bicarbonate, and sodium pyruvate and supplemented with 20% heat-inactivated FBS (cell clone), 1% (v/v) minimal essential medium nonessential amino acids (Hi-Media), antibiotic, and antimycotic (penicillin, streptomycin, and amphotericin B; Hi-Media) in a humidified atmosphere of 5% CO2 at 37 °C. […] Caco-2 VB cells, which overexpress hPGP, were generated by growing Caco-2 cells in the presence of 1 μg/mL vinblastine. The drug was removed from the culture medium 2–3 days prior to using the Caco-2 VB cells in the biological assays.
Caco-2 cells were cultured in 96-well plates until they reached 70–80% confluency and then treated with the TRZ-DHPM derivatives (0.1–100 μM). Cytotoxicity was determined using an MTT (3-(4,5-dimethylthiazol-2-yl)-2,5-diphenyltetrazolium bromide) assay as described previously.[31]
(In general: Formazan colour is commonly taken as a measure of viable cells.)

T1 sequence (P08183 whole entry): as above

As a reminder, the melting point is the temperature, or range, at which the solid turns liquid. One may read the EC50 as the concentration giving half of the maximal effect. For orientation: IC50 means the concentration needed to halve the response being measured. Low readings indicate greater potency in that assay, high ones weaker potency in that assay. Consider `CC(=O)C1=C(C)NC(=O)NC1c1cc(Br)cc(Br)c1OCc1cn(-c2ccccc2[N+](=O)[O-])nn1` (stereo not shown) [6cb′, 5-Acetyl-4-(3,5-dibromo-2-((1-(2-nitrophenyl)-1H-1,2,3-triazol-4-yl)methoxy)phenyl)-6-methyl-3,4-dihydro-pyrimidin-2(1H)-one], for which the melting point fell in the range of 167 to 169 °C. Besides, the “intracellular calcein retention by fluorescence microscopy” value on hPgp is “confirmed intracellular calcein retention”. Further, the 50% effective concentration (EC50) in series [1] was 3.4 ± 0.3 µM. In series [2], the IC50 stood at 1.22 ± 0.08 µM.
